The values below come from US20250296971A1, “GASTRIC INHIBITORY PEPTIDE RECEPTOR LIGANDS” (priority 2021, published 2025).

*1 amine or outer side, *2 acyl side, *3 side chain or, on linkers, in order; H or OH if unused. Where a SMILES comes first, the peptide text is derived from it. Bridges are numbered along the chain shown (N, C = ends). [ ]: non-standard residue; d: D form. Trp(5-Cl) = N[C@@H](Cc1c[nH]c2ccc(Cl)cc12)C(=O)O; Pyridine(2,6-diCH2) = c1cc(C[*:1])nc(C[*:2])c1; Phe(2,4-Cl2) = N[C@@H](Cc1ccc(Cl)cc1Cl)C(=O)O; Nip(3R) = O=C([C@@H]1CCCN([*:1])C1)[*:2]; Phe(4-Cl) = N[C@@H](Cc1ccc(Cl)cc1)C(=O)O; Phe(2-Cl) = N[C@@H](Cc1ccccc1Cl)C(=O)O; Pro(4,4-F2) = O=C(O)[C@@H]1CC(F)(F)CN1; 1Nal = N[C@@H](Cc1cccc2ccccc12)C(=O)O; mXylylene = c1cc(C[*:1])cc(C[*:2])c1; Hyp = O=C(O)[C@@H]1C[C@@H](O)CN1; 2Thi = N[C@@H](Cc1cccs1)C(=O)O; Cit = NC(=O)NCCC[C@H](N)C(=O)O; Nle = CCCC[C@H](N)C(=O)O; Thp = NC1(C(=O)O)CCOCC1; Dap = NC[C@H](N)C(=O)O; Aib = CC(C)(N)C(=O)O Where only a bound is given, the exact number is not on record here.

This assay concerns the target T1, GIPR (CHO-K1-hGIPR cells) (Homo sapiens, UniProt P48546).
T1 construct: host or cells: CHO-K1
T1 sequence (P48546 22-466): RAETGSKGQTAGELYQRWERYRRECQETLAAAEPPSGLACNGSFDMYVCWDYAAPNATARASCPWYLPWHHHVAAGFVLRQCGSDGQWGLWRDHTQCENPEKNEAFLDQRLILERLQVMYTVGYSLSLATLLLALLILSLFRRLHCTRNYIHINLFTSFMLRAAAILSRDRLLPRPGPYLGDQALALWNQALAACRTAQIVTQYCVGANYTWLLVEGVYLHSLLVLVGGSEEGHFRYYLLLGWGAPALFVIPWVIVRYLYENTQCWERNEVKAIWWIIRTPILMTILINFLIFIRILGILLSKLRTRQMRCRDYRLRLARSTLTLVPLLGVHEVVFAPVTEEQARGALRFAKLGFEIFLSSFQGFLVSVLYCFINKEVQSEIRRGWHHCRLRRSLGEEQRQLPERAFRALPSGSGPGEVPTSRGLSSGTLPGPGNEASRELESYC
The experiment in a line: FACS binding assay. To be noted: competition with 20 nM GIP-057, 4° C. for 1 hour, read-out: pIC50 Category (converted). In short, it runs like this: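 Read-out: flow cytometric median fluorescence intensity, APC/Cy5 channel, plotted vs peptide conc.; 4PL fit → EC50/pEC50 or IC50/pIC50. Cells: CHO-K1-hGIPR, Accutase-detached, 500.000/mL in PBS + 1% FCS. Detection: APC-streptavidin 1 μg/mL, 30 min, on ice.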
As for `CC[C@H](C)[C@@H]1NC(=O)[C@H](CC(C)C)NC(=O)C(C)(C)NC(=O)[C@@H](NC(=O)[C@H](CC(N)=O)NC(=O)[C@H](CCC(=O)O)NC(=O)[C@@H]2CCCN2C(=O)[C@H](Cc2cccc3ccccc23)NC(=O)[C@H](Cc2c[nH]c3ccccc23)NC(=O)[C@H](CC(=O)O)NC(C)=O)CSCc2cccc(c2)CSC[C@@H](C(N)=O)NC1=O` [GIP-340, Ac-Asp-Trp-1Ni-Pro-Glu-Asn-[Cys(3MeBn)-Aib-Leu-Ile-Cys]-NH2] (Ac-DW[1Nal]PENC[Aib]LIC-NH2; linker 7-11 via mXylylene), the IC50 is more than 1000 nM.

For `CC[C@H](C)[C@@H]1NC(=O)[C@H](CC(C)C)NC(=O)C(C)(C)NC(=O)[C@@H](NC(=O)[C@H](CC(C)C)NC(=O)[C@H](CCC(=O)O)NC(=O)[C@@H]2CC(F)(F)CN2C(=O)[C@H](Cc2cccc3ccccc23)NC(=O)[C@H](Cc2c[nH]c3ccccc23)NC(=O)[C@H](CC(=O)O)NC(C)=O)CSCc2cccc(c2)CSC[C@@H](C(N)=O)NC1=O` [GIP-341, Ac-Asp-Trp-1Ni-4Dfp-Glu-Leu-[Cys(3MeBn)-Aib-Leu-Ile-Cys]-NH2] (Ac-DW[1Nal][Pro(4,4-F2)]ELC[Aib]LIC-NH2; linker 7-11 via mXylylene), the IC50 is more than 1000 nM.

Take `CC[C@H](C)[C@@H]1NC(=O)[C@H](CC(C)C)NC(=O)C(C)(C)NC(=O)[C@@H](NC(=O)[C@H](CC(C)C)NC(=O)[C@H](CCC(=O)O)NC(=O)[C@@H]2CCCN(C(=O)[C@H](Cc3cccc4ccccc34)NC(=O)[C@H](Cc3c[nH]c4ccccc34)NC(=O)[C@H](CC(=O)O)NC(C)=O)C2)CSCc2cccc(c2)CSC[C@@H](C(N)=O)NC1=O` [GIP-342, Ac-Asp-Trp-1Ni-Rni-Glu-Leu-[Cys(3MeBn)-Aib-Leu-Ile-Cys]-NH2] (Ac-DW[1Nal][Nip(3R)]ELC[Aib]LIC-NH2; linker 7-11 via mXylylene): the IC50 is more than 1000 nM.

As to `CC[C@H](C)[C@@H]1NC(=O)[C@H](CC(C)C)NC(=O)C(C)(C)NC(=O)[C@@H](NC(=O)[C@H](Cc2cccs2)NC(=O)[C@H](CCC(=O)O)NC(=O)[C@@H]2CCCN2C(=O)[C@H](Cc2cccc3ccccc23)NC(=O)[C@H](Cc2c[nH]c3ccccc23)NC(=O)[C@H](CC(=O)O)NC(C)=O)CSCc2cccc(c2)CSC[C@@H](C(N)=O)NC1=O` [GIP-343, Ac-Asp-Trp-1Ni-Pro-Glu-Thi-[Cys(3MeBn)-Aib-Leu-Ile-Cys]-NH2] (Ac-DW[1Nal]PE[2Thi]C[Aib]LIC-NH2; linker 7-11 via mXylylene), the IC50 is more than 1000 nM.

Consider `CC[C@H](C)[C@@H]1NC(=O)[C@H](CC(C)C)NC(=O)C(C)(C)NC(=O)[C@@H](NC(=O)[C@H](Cc2ccccc2)NC(=O)[C@H](CCC(=O)O)NC(=O)[C@@H]2CCCN2C(=O)[C@H](Cc2cccc3ccccc23)NC(=O)[C@H](Cc2c[nH]c3ccccc23)NC(=O)[C@H](CC(=O)O)NC(C)=O)CSCc2cccc(c2)CSC[C@@H](C(N)=O)NC1=O` [GIP-344, Ac-Asp-Trp-1Ni-Pro-Glu-Phe-[Cys(3MeBn)-Aib-Leu-Ile-Cys]-NH2] (Ac-DW[1Nal]PEFC[Aib]LIC-NH2; linker 7-11 via mXylylene), for which the IC50 is more than 1000 nM.

On to `CC[C@H](C)[C@@H]1NC(=O)[C@H](CC(C)C)NC(=O)C(C)(C)NC(=O)[C@@H](NC(=O)[C@H](CCCCN)NC(=O)[C@H](CCC(=O)O)NC(=O)[C@@H]2CCCN2C(=O)[C@H](Cc2cccc3ccccc23)NC(=O)[C@H](Cc2c[nH]c3ccccc23)NC(=O)[C@H](CC(=O)O)NC(C)=O)CSCc2cccc(c2)CSC[C@@H](C(N)=O)NC1=O` [GIP-345, Ac-Asp-Trp-1Ni-Pro-Glu-Lys-[Cys(3MeBn)-Aib-Leu-Ile-Cys]-NH2] (Ac-DW[1Nal]PEKC[Aib]LIC-NH2; linker 7-11 via mXylylene), for which the IC50 was more than 1000 nM.

Consider `CCCC[C@H](NC(=O)[C@H](CCC(=O)O)NC(=O)[C@@H]1CCCN1C(=O)[C@H](Cc1cccc2ccccc12)NC(=O)[C@H](Cc1c[nH]c2ccccc12)NC(=O)[C@H](CC(=O)O)NC(C)=O)C(=O)N[C@H]1CSCc2cccc(c2)CSC[C@@H](C(N)=O)NC(=O)[C@H]([C@@H](C)CC)NC(=O)[C@H](CC(C)C)NC(=O)C(C)(C)NC1=O` [GIP-346, Ac-Asp-Trp-1Ni-Pro-Glu-Nle-[Cys(3MeBn)-Aib-Leu-Ile-Cys]-NH2] (Ac-DW[1Nal]PE[Nle]C[Aib]LIC-NH2; linker 7-11 via mXylylene), for which the IC50 was more than 1000 nM.

For the compound `CC[C@H](C)[C@@H]1NC(=O)[C@H](CC(C)C)NC(=O)C(C)(C)NC(=O)[C@@H](NC(=O)[C@H](CCCNC(N)=O)NC(=O)[C@H](CCC(=O)O)NC(=O)[C@@H]2CCCN2C(=O)[C@H](Cc2cccc3ccccc23)NC(=O)[C@H](Cc2c[nH]c3ccccc23)NC(=O)[C@H](CC(=O)O)NC(C)=O)CSCc2cccc(c2)CSC[C@@H](C(N)=O)NC1=O` [GIP-347, Ac-Asp-Trp-1Ni-Pro-Glu-Cit-[Cys(3MeBn)-Aib-Leu-Ile-Cys]-NH2] (Ac-DW[1Nal]PE[Cit]C[Aib]LIC-NH2; linker 7-11 via mXylylene), the IC50 is more than 1000 nM.

For `CC[C@H](C)[C@@H]1NC(=O)[C@H](CC(C)C)NC(=O)C(C)(C)NC(=O)[C@@H](NC(=O)[C@H](CNC(C)=O)NC(=O)[C@H](CCC(=O)O)NC(=O)[C@@H]2CCCN2C(=O)[C@H](Cc2cccc3ccccc23)NC(=O)[C@H](Cc2c[nH]c3ccccc23)NC(=O)[C@H](CC(=O)O)NC(C)=O)CSCc2cccc(c2)CSC[C@@H](C(N)=O)NC1=O` [GIP-348, Ac-Asp-Trp-1Ni-Pro-Glu-Dap(Ac)-[Cys(3MeBn)-Aib-Leu-Ile-Cys]-NH2] (Ac-DW[1Nal]PE[Dap](Ac)C[Aib]LIC-NH2; linker 7-11 via mXylylene), the IC50 was more than 1000 nM.

In the case of `CC[C@H](C)[C@@H]1NC(=O)[C@H](CC(C)C)NC(=O)C2(CCOCC2)NC(=O)[C@@H](NC(=O)[C@@H](CC(C)C)NC(=O)[C@H](CCC(=O)O)NC(=O)[C@@H]2C[C@@H](O)CN2C(=O)[C@H](Cc2ccccc2Cl)NC(=O)[C@H](Cc2c[nH]c3ccccc23)NC(=O)[C@H](CC(=O)O)NC(C)=O)CSCc2cccc(n2)CSC[C@@H](C(N)=O)NC1=O` [GIP-349, Ac-Asp-Trp-Ocf-Hyp-Glu-leu-[Cys(2Lut)-Thp-Leu-Ile-Cys]-NH2] (Ac-DW[Phe(2-Cl)][Hyp]E[dL]C[Thp]LIC-NH2; linker 7-11 via Pyridine(2,6-diCH2)), the IC50 was more than 1000 nM.

In the case of `CC[C@H](C)[C@@H]1NC(=O)[C@H](CC(C)C)NC(=O)C2(CCOCC2)NC(=O)[C@@H](NC(=O)[C@@H](CC(C)C)NC(=O)[C@H](CCC(=O)O)NC(=O)[C@@H]2C[C@@H](O)CN2C(=O)[C@H](Cc2ccc(Cl)cc2)NC(=O)[C@H](Cc2c[nH]c3ccccc23)NC(=O)[C@H](CC(=O)O)NC(C)=O)CSCc2cccc(n2)CSC[C@@H](C(N)=O)NC1=O` [GIP-350, Ac-Asp-Trp-Pcf-Hyp-Glu-leu-[Cys(2Lut)-Thp-Leu-Ile-Cys]-NH2] (Ac-DW[Phe(4-Cl)][Hyp]E[dL]C[Thp]LIC-NH2; linker 7-11 via Pyridine(2,6-diCH2)), the IC50 is more than 1000 nM.

Regarding `CC[C@H](C)[C@@H]1NC(=O)[C@H](CC(C)C)NC(=O)C2(CCOCC2)NC(=O)[C@@H](NC(=O)[C@@H](CC(C)C)NC(=O)[C@H](CCC(=O)O)NC(=O)[C@@H]2C[C@@H](O)CN2C(=O)[C@H](Cc2ccc(Cl)cc2Cl)NC(=O)[C@H](Cc2c[nH]c3ccccc23)NC(=O)[C@H](CC(=O)O)NC(C)=O)CSCc2cccc(n2)CSC[C@@H](C(N)=O)NC1=O` [GIP-351, Ac-Asp-Trp-Egm-Hyp-Glu-leu-[Cys(2Lut)-Thp-Leu-Ile-Cys]-NH2] (Ac-DW[Phe(2,4-Cl2)][Hyp]E[dL]C[Thp]LIC-NH2; linker 7-11 via Pyridine(2,6-diCH2)), the IC50 was more than 1000 nM.

Take `CC[C@H](C)[C@@H]1NC(=O)[C@H](CC(C)C)NC(=O)C2(CCOCC2)NC(=O)[C@@H](NC(=O)[C@@H](CC(C)C)NC(=O)[C@H](CCC(=O)O)NC(=O)[C@@H]2C[C@@H](O)CN2C(=O)[C@H](Cc2ccccc2)NC(=O)[C@H](Cc2c[nH]c3ccccc23)NC(=O)[C@H](CC(=O)O)NC(C)=O)CSCc2cccc(n2)CSC[C@@H](C(N)=O)NC1=O` [GIP-352, Ac-Asp-Trp-Phe-Hyp-Glu-leu-[Cys(2Lut)-Thp-Leu-Ile-Cys]-NH2] (Ac-DWF[Hyp]E[dL]C[Thp]LIC-NH2; linker 7-11 via Pyridine(2,6-diCH2)): the IC50 is more than 1000 nM.

Consider `CC(=O)N[C@@H](CC(=O)O)C(=O)N[C@@H](Cc1c[nH]c2ccccc12)C(=O)N[C@@H](Cc1c[nH]c2ccc(Cl)cc12)C(=O)N1C[C@H](O)C[C@H]1C(=O)N[C@@H](CCC(=O)O)C(=O)N[C@H](CC(C)C)C(=O)N[C@H]1CSCc2cccc(n2)CSC[C@@H](C(N)=O)NC(=O)[C@H](CCCNC(=N)N)NC(=O)[C@H](CC(C)C)NC(=O)C2(CCOCC2)NC1=O` [GIP-353, Ac-Asp-Trp-5Clw-Hyp-Glu-leu-[Cys(2Lut)-Thp-Leu-Arg-Cys]-NH2] (Ac-DW[Trp(5-Cl)][Hyp]E[dL]C[Thp]LRC-NH2; linker 7-11 via Pyridine(2,6-diCH2)), for which the IC50 is more than 1000 nM.

On to `CC(=O)N[C@@H](CC(=O)O)C(=O)N[C@@H](Cc1c[nH]c2ccccc12)C(=O)N[C@@H](Cc1c[nH]c2ccc(Cl)cc12)C(=O)N1C[C@H](O)C[C@H]1C(=O)N[C@@H](CCC(=O)O)C(=O)N[C@H](CC(C)C)C(=O)N[C@H]1CSCc2cccc(n2)CSC[C@@H](C(N)=O)NC(=O)[C@H](CCC(=O)O)NC(=O)[C@H](CC(C)C)NC(=O)C2(CCOCC2)NC1=O` [GIP-354, Ac-Asp-Trp-5Clw-Hyp-Glu-leu-[Cys(2Lut)-Thp-Leu-Glu-Cys]-NH2] (Ac-DW[Trp(5-Cl)][Hyp]E[dL]C[Thp]LEC-NH2; linker 7-11 via Pyridine(2,6-diCH2)), for which the IC50 was more than 1000 nM.
